Consider five compounds from patent US11643388B2, “Inhibitors of alpha 2 beta 1 integrin and methods of use thereof” (The Regents of the University of California, priority 2020, dated 2023).

One data set can be described thus: Caco-2 permeability. The class given is in vitro ADME. As to conditions: human; for Papp A→B: A-B direction; for Papp B→A: B-A direction. On the technique in general: Caco-2 cells form a polarised layer with tight junctions and transporters.
For the next data set, the target named is α4β1 (Homo sapiens, UniProt P05556+P13612). As to the kind of experiment: α4β1 cell adhesion. The class given is cell-based.
A further data set in a line: Metabolic stability (h). The class given is in vitro ADME, human. To be noted: % remaining at 45 min.
For the next data set, the target named is α2β1 (Homo sapiens, UniProt P05556+P17301). The experiment in a line: α2β1 cell adhesion. The class given is cell-based.
A further data set in a line: Plasma stability (h). The class given is in vitro ADME, human. As to conditions: % remaining at 60 min.
A short description of data set [1]: Kinetic solubility (aqueous). The class given is physicochemical. As to conditions: kinetic from dmso stock, read-out: Kinetic Solubility (Aq).

Values after ≈ are worked out from the molar mass of the structure shown.

Chain of α4β1 (P13612 34-1032): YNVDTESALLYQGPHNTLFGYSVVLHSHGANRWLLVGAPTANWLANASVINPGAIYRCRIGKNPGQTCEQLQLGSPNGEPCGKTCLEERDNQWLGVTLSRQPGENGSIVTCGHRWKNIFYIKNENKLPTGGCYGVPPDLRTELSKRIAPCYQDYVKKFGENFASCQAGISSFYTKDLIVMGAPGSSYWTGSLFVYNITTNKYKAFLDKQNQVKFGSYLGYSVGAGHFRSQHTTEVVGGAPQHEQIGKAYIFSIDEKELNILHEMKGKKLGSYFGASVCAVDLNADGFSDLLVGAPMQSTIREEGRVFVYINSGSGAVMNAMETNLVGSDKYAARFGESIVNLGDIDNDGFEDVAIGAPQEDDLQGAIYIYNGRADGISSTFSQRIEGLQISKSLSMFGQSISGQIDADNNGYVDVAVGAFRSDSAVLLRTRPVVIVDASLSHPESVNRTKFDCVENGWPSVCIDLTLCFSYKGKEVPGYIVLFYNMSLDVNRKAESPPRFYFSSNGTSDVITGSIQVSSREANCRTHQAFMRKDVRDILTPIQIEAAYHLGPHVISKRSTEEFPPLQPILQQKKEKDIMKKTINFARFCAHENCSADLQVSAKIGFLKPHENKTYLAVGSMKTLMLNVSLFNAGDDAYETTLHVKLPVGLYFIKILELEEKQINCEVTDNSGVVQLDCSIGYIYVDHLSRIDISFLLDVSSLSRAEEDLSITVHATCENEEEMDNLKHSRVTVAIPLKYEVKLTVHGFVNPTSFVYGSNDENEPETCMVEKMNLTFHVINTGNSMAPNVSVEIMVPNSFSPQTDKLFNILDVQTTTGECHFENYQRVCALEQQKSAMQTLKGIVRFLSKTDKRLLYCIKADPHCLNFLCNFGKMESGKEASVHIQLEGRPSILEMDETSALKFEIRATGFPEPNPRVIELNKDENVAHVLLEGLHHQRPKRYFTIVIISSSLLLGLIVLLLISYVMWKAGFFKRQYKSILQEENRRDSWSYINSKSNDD
Chain of α4β1 (P05556 21-798): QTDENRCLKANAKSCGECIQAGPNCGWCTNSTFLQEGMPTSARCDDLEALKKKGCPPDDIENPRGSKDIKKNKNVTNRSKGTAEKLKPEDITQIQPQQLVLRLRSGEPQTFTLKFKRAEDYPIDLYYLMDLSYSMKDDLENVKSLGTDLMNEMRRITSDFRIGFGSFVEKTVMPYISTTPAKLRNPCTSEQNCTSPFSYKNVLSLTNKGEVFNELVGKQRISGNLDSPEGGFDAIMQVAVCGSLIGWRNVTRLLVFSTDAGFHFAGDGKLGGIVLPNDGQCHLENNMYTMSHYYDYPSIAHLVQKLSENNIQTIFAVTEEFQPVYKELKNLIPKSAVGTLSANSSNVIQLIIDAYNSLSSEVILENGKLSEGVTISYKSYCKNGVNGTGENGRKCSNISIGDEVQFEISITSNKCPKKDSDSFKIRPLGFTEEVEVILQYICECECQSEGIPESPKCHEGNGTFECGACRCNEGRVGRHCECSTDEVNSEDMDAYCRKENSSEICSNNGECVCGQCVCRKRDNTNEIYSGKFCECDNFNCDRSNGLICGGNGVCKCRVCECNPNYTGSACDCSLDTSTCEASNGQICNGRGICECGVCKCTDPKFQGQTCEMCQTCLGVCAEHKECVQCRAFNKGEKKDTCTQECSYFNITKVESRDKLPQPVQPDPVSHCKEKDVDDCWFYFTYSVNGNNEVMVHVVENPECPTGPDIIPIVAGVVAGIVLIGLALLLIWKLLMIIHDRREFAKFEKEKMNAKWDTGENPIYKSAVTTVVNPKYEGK
Chain of α2β1 (P17301 30-1181): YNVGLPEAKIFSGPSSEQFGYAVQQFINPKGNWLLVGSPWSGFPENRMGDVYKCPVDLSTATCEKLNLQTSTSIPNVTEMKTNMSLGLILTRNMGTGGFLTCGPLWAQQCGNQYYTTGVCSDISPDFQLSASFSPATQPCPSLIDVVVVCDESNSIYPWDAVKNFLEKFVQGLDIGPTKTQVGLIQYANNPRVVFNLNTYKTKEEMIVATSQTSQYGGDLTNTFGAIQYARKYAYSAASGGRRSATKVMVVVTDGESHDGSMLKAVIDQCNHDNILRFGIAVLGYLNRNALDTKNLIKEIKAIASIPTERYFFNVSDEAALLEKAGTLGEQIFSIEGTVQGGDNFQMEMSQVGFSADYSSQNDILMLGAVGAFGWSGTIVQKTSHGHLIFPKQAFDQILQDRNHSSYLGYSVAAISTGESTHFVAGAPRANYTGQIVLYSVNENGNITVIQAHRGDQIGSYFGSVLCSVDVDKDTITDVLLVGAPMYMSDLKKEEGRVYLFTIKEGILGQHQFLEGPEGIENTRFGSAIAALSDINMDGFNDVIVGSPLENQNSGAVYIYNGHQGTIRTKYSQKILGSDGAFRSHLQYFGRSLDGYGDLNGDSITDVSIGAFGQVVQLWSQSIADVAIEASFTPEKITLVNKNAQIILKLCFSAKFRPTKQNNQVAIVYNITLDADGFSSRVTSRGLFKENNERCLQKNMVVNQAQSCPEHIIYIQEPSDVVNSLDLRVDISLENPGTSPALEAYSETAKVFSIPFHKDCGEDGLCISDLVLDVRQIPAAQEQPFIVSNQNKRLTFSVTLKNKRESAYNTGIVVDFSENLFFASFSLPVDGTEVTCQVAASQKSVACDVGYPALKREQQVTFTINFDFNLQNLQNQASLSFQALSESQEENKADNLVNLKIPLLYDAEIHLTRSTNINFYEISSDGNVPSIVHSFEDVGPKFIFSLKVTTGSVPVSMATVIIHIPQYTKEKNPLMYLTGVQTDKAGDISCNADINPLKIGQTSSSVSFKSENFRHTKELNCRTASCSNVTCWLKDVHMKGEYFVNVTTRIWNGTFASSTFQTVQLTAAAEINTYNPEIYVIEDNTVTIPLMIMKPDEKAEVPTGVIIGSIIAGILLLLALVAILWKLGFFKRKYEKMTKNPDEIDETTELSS
Chain of α2β1 (P05556 21-798): as the sequence (P05556 21-798) above

For `O=C(NC[C@H](NC(=O)c1c(Cl)ccc(Nc2ncc3ccccc3n2)c1Cl)C(=O)O)N[C@@H]1CCc2ccccc21` [SU15210-0076-01, (S)-2-(2,6-dichloro-3-(quinazolin-2-ylamino)benzamido)-3-(3-((R)-2,3-dihydro-1H-inden-1-yl)ureido)propanoic Acid], in “Caco-2 permeability”, the apparent permeability from apical to basolateral (Papp A→B) (as a rule, how fast a substance crosses the layer from the apical side) was 0.2 ×10⁻⁶ cm/s and the Papp B→A (commonly how fast a substance crosses the layer from the basolateral side) turned out to be 24.2 ×10⁻⁶ cm/s. Moreover, it took 2900 nM to reach half-maximal inhibition on α4β1 (IC50). Further, the “Met Stab(h) % rem/45 min” value in the data set “Metabolic stability (h)” was determined as 96.3%. Also, the half-maximal inhibitory concentration (IC50) (as a rule, the concentration that gives 50% inhibition) on α2β1 is below 500 nM. Besides, in “Plasma stability (h)”, the “Plasma Stab(h) % rem/60 min” value was 55.6%.

`O=C(Cc1cccc(Cl)c1)Nc1ccc(Cl)c(C(=O)N[C@@H](CNC(=O)N[C@@H]2CCc3ccccc32)C(=O)O)c1Cl` [SU15210-0099-01, (S)-2-(2,6-dichloro-3-(2-(3-chlorophenyl)acetamido)benzamido)-3-(3-((R)-2,3-dihydro-1H-inden-1-yl)ureido)propanoic Acid]: in the data set “Caco-2 permeability”, the apparent permeability from apical to basolateral (Papp A→B) came out at 2.7 ×10⁻⁶ cm/s and the Papp B→A came to 20.1 ×10⁻⁶ cm/s. In addition, in data set [1], the solubility (kinetic) (commonly the concentration staying in solution when a stock, usually in DMSO, is diluted into the medium) worked out at 66.9 µM (≈ 40.4 µg/mL). Further, the “Met Stab(h) % rem/45 min” value in “Metabolic stability (h)” stood at 72.3%. In addition, the IC50 at α2β1 was below 500 nM. Besides, the “Plasma Stab(h) % rem/60 min” value in “Plasma stability (h)” is on record as 85.84%.

`O=C(NC[C@H](NC(=O)c1c(Cl)cc(C(=O)NCc2cccc(O)c2)cc1Cl)C(=O)O)N[C@@H]1CCc2ccccc21` [SU15210-0095-01, (S)-2-(2,6-dichloro-4-(3-hydroxybenzylcarbamoyl)benzamido)-3-(3-((R)-2,3-dihydro-1H-inden-1-yl)ureido)propanoic Acid]: in “Caco-2 permeability”, the apical-to-basolateral permeability (Papp A→B) turned out to be 3.2 ×10⁻⁶ cm/s. In addition, in “Caco-2 permeability”, the Papp B→A was determined as 1.6 ×10⁻⁶ cm/s. The concentration for half-maximal inhibition (IC50) against α4β1 is 21100 nM; against α2β1, below 500 nM. For the same compound, in the data set “Metabolic stability (h)”, the “Met Stab(h) % rem/45 min” value was found to be 99.6%. The “Plasma Stab(h) % rem/60 min” value in “Plasma stability (h)” is 99.4%.

Consider `O=C(NC[C@H](NC(=O)c1c(Cl)cc2c(c1Cl)CCN(C(=O)c1ccccc1)C2)C(=O)O)N[C@@H]1CCc2ccccc21` [SU15210-0173-01], for which, in “Caco-2 permeability”, the Papp A→B was 0.8 ×10⁻⁶ cm/s and the Papp B→A came out at 6.8 ×10⁻⁶ cm/s. The “Met Stab(h) % rem/45 min” value in “Metabolic stability (h)” came to 65%. This compound also yielded a half-maximal inhibitory concentration (IC50) on α2β1 below 500 nM. Moreover, the “Plasma Stab(h) % rem/60 min” value in “Plasma stability (h)” is on record as 108%.

As to `O=C(NC[C@H](NC(=O)c1c(Cl)ccc(N2CC(c3ccccc3)C2)c1Cl)C(=O)O)N[C@@H]1CCc2ccccc21` [SU15210-0080-01, (S)-2-(2,6-dichloro-3-(3-phenylazetidin-1-yl)benzamido)-3-(3-((R)-2,3-dihydro-1H-inden-1-yl)ureido)propanoic Acid], the 50% inhibitory concentration (IC50) was 37000 nM at α4β1 and below 500 nM against α2β1.
